# Where two headings read alike, the source gives them in different places. Marks after values point to notes of the source that are not given here.
# Columns and labels:
# S1/FLV5000 = test: cells; format: cell-based; details: S1/FLV5000, alone
# Experimental: (§1) The ABCB1-overexpressing drug resistant cell line KB-V1 (generously provided by Dr. Gottesman, NCI, NIH) was established by a stepwise concentration increase of vinblastine in the culture medium of KB-3-1 cells and subsequently culturing these cells in medium with 1 μg/mL of vinblastine. An ABCC1-overexpressing MDR cell line, KB-CV60, was also derived from KB-3-1 cells and was maintained in medium with 1 μg/mL of cepharanthine and 60 ng/mL of vincristine. Both KB-C2 and KB-CV60 cell lines were kindly provided by Dr. Akiyama (Kagoshima University, Japan). HEK293/pcDNA3.1, ABCG2-482-R5, ABCG2-482-G2, and ABCG2-482-T7 cells were established by selection with 2 mg/mL G418 after transfecting HEK293 with either (1) empty pcDNA3.1 vector or (2) pcDNA3.1 vector containing full length ABCG2 coding either (2a) wild-type arginine (R) or mutant (2b) glycine (G) or (2c) threonine (T) at amino acid position 482, respectively. The wild-type ABCG2-overexpressing drug-resistant cell line MCF-7/Flv1000 was cultured in the medium with 1 μM of flavopiridol. […] Another G482 mutant ABCG2-overexpressing drug resistant cell line, S1-M1-80, was maintained in the medium with 80 μM of mitoxantrone. […] All the cell lines were grown as adherent monolayers in flasks with DMEM (Dulbecco's modified Eagle's medium) culture medium (Hyclone Co.) containing 10% bovine serum at 37° C. in a humidified atmosphere of 5% CO2.
# (§2) Cells in 96-well plates were preincubated with or without the reversal agents for 1 h and then different concentrations of chemotherapeutic drugs were added into designated wells. After 68 h of incubation, MTT solution (4 mg/mL) was added to each well, and the plate was further incubated for 4 h, allowing viable cells to change the yellow-colored MTT into dark-blue formazan crystals. Subsequently the medium was discarded, and […] of DMSO was added into each well to dissolve the formazan crystals. The absorbance was determined at 570 nm by an OPSYS MR Microplate Reader from DYNEX Technologies, Inc.
# HEK293/pcDNA3 = test: MTT cytotoxicity/reversal assay (Example 2); format: cell-based
# Experimental: as §1, §2
# MCF7/ADVP3000 = test: MTT cytotoxicity/reversal assay (Example 2); format: cell-based
# Experimental: as §1, §2
# MCF-7/Flv1000 = test: MTT cytotoxicity/reversal assay (Example 2); format: cell-based
# Experimental: as §1, §2
# S1-M1-80 = test: MTT cytotoxicity/reversal assay (Example 2); format: cell-based
# Experimental: as §1, §2
# S1 = test: MTT cytotoxicity/reversal assay (Example 2); format: cell-based
# Experimental: as §1, §2
# MCF-7 = test: MTT cytotoxicity/reversal assay (Example 2); format: cell-based
# Experimental: as §1, §2
# HEK/ABCG2-G2 = test: MTT cytotoxicity/reversal assay (Example 2)
# Experimental: as §1, §2
# HEK/ABCG2-R5 = test: MTT cytotoxicity/reversal assay (Example 2)
# Experimental: as §1, §2
# HEK/ABCG2-T7 = test: MTT cytotoxicity/reversal assay (Example 2)
# Experimental: as §1, §2
# HEK293/pcDNA3.1 = test: MTT cytotoxicity/reversal assay (Example 1); format: cell-based
# Experimental: (§3) The KB-C2 and KB-3-1 were kindly provided by Dr. Akiyama (Kagoshima University, Japan). HEK293-pcDNA3.1 and wild-type HEK/ABCG2 transfected cells were established by selection with G418 after transfecting HEK293 with either (1) empty pcDNA3.1 vector or (2) pcDNA3.1 vector containing full length of ABCG2 coding arginine (R) at amino acid position 482, and were then cultured in a medium with 2 mg/ml of G418 (ABCG2-482-R2 cells). Similarly, the HEK/MRP1 (ABCC1) and HEK/ABCB1 cells were generated by transfecting the HEK293 cells with either the MRP1 expression vector or the ABCB1 expression vector. All of the cell lines were grown in Dulbecco's modified Eagle's medium (DMEM) supplemented with 10% bovine serum, 100 units/ml penicillin, and […] streptomycin in a humidified incubator containing 5% CO2 at 37° C.
# (§4) The MTT assay was used to assess cytotoxicity. The cultured cells were harvested with trypsin and resuspended in a final concentration of 4×10^3 cells/well for KB-3-1; 7.5×10^3 cells/well for KB-C2; and 8×10^3 for all of the other cell lines used in this study. Cells were seeded evenly in 96-well multiplates. […] After 68 h of incubation, 20 μl of the MTT solution (4 mg/ml) was added to each well, and the plate was further incubated for 4 h at 37° C., allowing viable cells to convert the yellow-colored MTT into dark-blue formazan crystals. Subsequently, the medium was discarded, and 100 μl of DMSO was added into each well to dissolve the formazan crystals, generating purple color. The absorbance was determined at 570 nm by an OPSYS Microplate Reader from DYNEX Technologies, Inc. (Chantilly, Va.). […] The degree of the reversal of multidrug resistance (MDR) was calculated by dividing the IC50 of an anticancer drug, e.g., an antineoplastic or chemotherapeutic drug (agent, compound), in a cell type in the absence of a reversal agent by the IC50 of the anticancer drug in the same cell type in the presence of the reversal agent. The IC50 values were calculated from survival curves using the Bliss method.
# HEK 293-pcDNA-3.1 = test: MTT cytotoxicity assay (Example 4); format: cell-based; details: read-out: IC50 of cisplatin; HEK 293-pcDNA-3.1; alone
# Experimental: The MRP7 cDNA was generously provided by Dr. Gary Kruh (University of Illinois, Chicago, Ill.) and inserted into the pcDNA3.1 expression vector. […] Individual colonies were selected in medium containing G418 (1 mg/ml) and cultured for further analysis.
# MTT colorimetric assay was performed to analyze the drug sensitivity as previously described (Shi et al. (2007) Cancer Res. 67:11012-20). HEK293-pcDNA3.1 and HEK/MRP7 cells were seeded into 96-well plates in triplicate at 6000 cells/well.
# After drug incubation of 68 h, 20 μl MTT solution (4 mg/ml) was added into each well. […] The Bliss method was used to calculate the IC50 values according to survival curves.
# KB-V1 = test: MTT cytotoxicity/reversal assay (Example 2); format: cell-based, human; details: read-out: IC50 of cisplatin, alone
# Experimental: as §1, §2
# KB-C2 = test: MTT cytotoxicity/reversal assay (Example 2); format: cell-based, human; details: read-out: IC50 of cisplatin, alone
# Experimental: as §1, §2
# KB-3-1 [1] = test: MTT cytotoxicity/reversal assay (Example 2); format: cell-based, human; details: read-out: IC50 of cisplatin, alone
# Experimental: as §1, §2
# KB-3-1 [2] = test: MTT cytotoxicity/reversal assay (Example 1); format: cell-based, human; details: read-out: IC50 of cisplatin, alone
# Experimental: as §3, §4
# HEK/MRP1 (ABCC1) = test: MTT cytotoxicity/reversal assay (Example 1); format: cell-based; details: +10 μM reversal agent
# Experimental: The KB-C2 and KB-3-1 were kindly provided by Dr. Akiyama (Kagoshima University, Japan). […] Similarly, the HEK/MRP1 (ABCC1) and HEK/ABCB1 cells were generated by transfecting the HEK293 cells with either the MRP1 expression vector or the ABCB1 expression vector. All of the cell lines were grown in Dulbecco's modified Eagle's medium (DMEM) supplemented with 10% bovine serum, 100 units/ml penicillin, and […] streptomycin in a humidified incubator containing 5% CO2 at 37° C.
# as §4
# [3] = Homo sapiens, alone, read-out: IC50 of flavopiridol
# [4] = read-out: IC50 of cisplatin, alone
structure (smiles),measurement,setting,value
"CN1CC[C@H](c2c(O)cc(O)c3c(=O)cc(-c4ccccc4Cl)oc23)[C@H](O)C1 [Flavopiridol, flavopiridol]","fold-resistance, flavopiridol",S1/FLV5000,(64.9)
same,IC50,S1/FLV5000; read-out: IC50 of flavopiridol,6200 ± 463 nM
same,IC50,HEK293/pcDNA3; [3],164 ± 17.1 nM
same,"fold-resistance, flavopiridol",HEK293/pcDNA3; alone,(1.0)^c
same,IC50,MCF7/ADVP3000; [3],3900 ± 414 nM
same,"fold-resistance, flavopiridol",MCF7/ADVP3000; alone,(11.3)
same,"fold-resistance, flavopiridol","MCF-7/Flv1000; MCF-7/Flv1000, alone",(19.9)
same,IC50,"MCF-7/Flv1000; MCF-7 FLV1000, read-out: IC50 of flavopiridol",6860 ± 479 nM
same,IC50,S1-M1-80; [3],699 ± 47 nM
same,"fold-resistance, flavopiridol",S1-M1-80; alone,(7.3)
same,"fold-resistance, flavopiridol",S1; alone,(1.0)^c
same,IC50,"S1; alone, read-out: IC50 of flavopiridol",96.1 ± 9.6 nM
same,IC50,"MCF-7; Homo sapiens, MCF7, alone, read-out: IC50 of flavopiridol",344.3 ± 2.1 nM
same,"fold-resistance, flavopiridol",MCF-7; alone,(1.0)^c
same,"fold-resistance, flavopiridol",HEK/ABCG2-G2,(2.4)
same,"fold-resistance, flavopiridol",HEK/ABCG2-R5,(1.7)
same,"fold-resistance, flavopiridol",HEK/ABCG2-T7,(4.6)
"N.N.[Cl][Pt][Cl] [Cisplatin, cisplatin]",IC50,"HEK293/pcDNA3.1; read-out: IC50 of cisplatin, HEK293/pcDNA3.1, alone",890000 ± 33900 nM
same,IC50,HEK 293-pcDNA-3.1,1570 ± 85 nM
same,IC50,S1/FLV5000; read-out: IC50 of cisplatin,53400 ± 5800 nM
same,IC50,KB-V1,1760 ± 178 nM
same,IC50,KB-C2,1730 ± 83 nM
same,IC50,KB-3-1 [1],1740 ± 161 nM
same,IC50,KB-3-1 [2],1900 ± 70.9 nM
same,IC50,HEK293/pcDNA3; [4],1630 ± 170 nM
same,IC50,MCF7/ADVP3000; [4],31100 ± 3200 nM
same,IC50,"MCF-7/Flv1000; read-out: IC50 of cisplatin, MCF-7/Flv1000, alone",35100 ± 1860 nM
same,IC50,S1-M1-80; [4],18000 ± 2590 nM
same,IC50,S1; [4],14700 ± 2230 nM
same,IC50,MCF-7; [4],34400 ± 1760 nM
O=C(Nc1cccc2c(=O)cc(-c3nn[nH]n3)oc12)c1ccc(OCCCCc2ccccc2)cc1 [ONO-1078],"fold reversal, vincristine","HEK293/pcDNA3.1; HEK293/pcDNA3.1 (Table 6), +10 μM reversal agent",(1.33)
same,"fold reversal, vincristine",HEK/MRP1 (ABCC1),(5.9)
